Measured values as given in US9474790B2, “Stable, protracted GLP-1/glucagon receptor co-agonists for medical use” (Novo Nordisk A/S, priority 2013, dated 2016).
Numbered stars: 1 amine (or outer) side, 2 acyl side, 3 side chain; on linkers, the order of the positions; unused ones are H or OH. Square brackets hold non-standard residues; d marks the D form. Side chains are listed from the residue outwards. Peptide text beside a SMILES is read from it. * marks the point of attachment. C18 diacid = O=C(O)CCCCCCCCCCCCCCCCC(=O)*; γGlu = O=C(O)[C@H](CCC(=O)[*:2])N[*:1]; AEEA = NCCOCCOCC(=O)O; Aib = CC(C)(N)C(=O)O

Assays:
[1] = Chemical stability assessment by RP-UPLC; assay type: physicochemical; details: 333 μM, 8 mM phosphate buffer pH 7.3, 37° C. vs 5° C.
Procedure: The purpose of this assay was to assess the chemical stability of the glucagon derivatives of the invention in aqueous solutions.
Chemical stability of glucagon derivatives or analogues was investigated by RP-UPLC separation and UV detection. Lyophilized samples were dissolved in a 8 mM Phosphate buffer pH 8.6, followed by adjustment to pH 7.3.using HCl to a final concentration of 333 μM. Samples were incubated for 14 days at 5° C. and 37° C. followed by RP-UPLC analysis. Purity was defined as the area percentage of the main peak in relation to the total area of all integrated peaks in each chromatogram. Purity loss after 14 days at 37° C. was determined as the difference in purity between the samples incubated at 5° C. and 37° C., divided by the purity of the sample after incubation for 14 days at 5° C.
RP-UPLC analysis was performed using a Waters BEH130 2.1 mm×150 mm, 1.7 μm column operated at 50° C. and a flow rate of 0.4 mL/min using a mobile phase system consisting of A: 0.05% TFA in MQ-water B: 0.05% TFA in Acetonitrile. UV-detection was performed at 215 nm. The typical gradient profile used for most of the samples is shown below.
For some individual derivatives or analogues eluting at substantially different retention times compared with the majority of derivatives or analogues, some adjustments to the gradient profile were made to better enable purity assessment comparison across samples. The data confirmed the improved chemical stability of the glucagon derivatives of this invention.

human glucagon receptor = molecular target: T1, human glucagon receptor (Homo sapiens, UniProt P47871); experiment: Glucagon receptor potency, CRE luciferase reporter gene assay in BHK cells; assay type: cell-based; details: BHK cells expressing human glucagon receptor, read-out: EC50 GlucR
T1 construct: expressed in transfected cells; host or cells: BHK cells (parent BHK570, CRE luciferase clone BHK/KZ10-20-48), clone pLJ6'-4-25
T1 sequence (P47871 26-477): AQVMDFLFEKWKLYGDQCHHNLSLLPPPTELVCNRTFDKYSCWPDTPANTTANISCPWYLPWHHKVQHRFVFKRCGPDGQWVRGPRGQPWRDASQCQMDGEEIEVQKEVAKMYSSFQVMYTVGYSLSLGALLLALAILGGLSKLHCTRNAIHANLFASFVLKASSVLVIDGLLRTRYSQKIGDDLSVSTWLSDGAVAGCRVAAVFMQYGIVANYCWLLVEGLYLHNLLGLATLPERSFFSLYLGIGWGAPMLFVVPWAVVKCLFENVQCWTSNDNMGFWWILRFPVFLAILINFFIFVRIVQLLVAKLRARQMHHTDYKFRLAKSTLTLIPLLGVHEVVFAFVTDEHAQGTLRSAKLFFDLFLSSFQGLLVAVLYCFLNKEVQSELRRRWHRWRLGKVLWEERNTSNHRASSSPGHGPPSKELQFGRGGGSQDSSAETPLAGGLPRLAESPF
Procedure: The purpose of this example was to test the potency, of the glucagon derivatives of the invention, in vitro. The in vitro potency is the measure of human GLP-1 receptor or glucagon receptor activation, respectively, in a whole cell assay.
In vitro potency was determined by measuring the response of human GLP-1 or glucagon receptor, respectively, in a reporter gene assay. The assay was performed in a stably transfected BHK cell line that expresses either the human GLP-1 receptor or the human glucagon receptor and contains the DNA for the cAMP response element (CRE) coupled to a promoter and the gene for firefly luciferase (CRE luciferase). […] When assay incubation was completed, the luciferase substrate (luciferin) was added and the enzyme converted luciferin to oxyluciferin and produces bioluminescence. The luminescence was measured as the readout for the assay.
The cells used in this assay (clone pLJ6′-4-25) were BHK cells with BHK570 as a parent cell line expressing the CRE luciferase gene (clone BHK/KZ10-20-48) and were established by further transfection with the human glucagon receptor (clone pLJ6′ in pHZ-1 vector).
The cells were cultured at 5% CO2 in DMEM medium with 10% FBS, 1×GlutaMAX, 1 mg/ml G418, 240 nM MTX (methotrexate) and 1% pen/strep (penicillin/streptomycin). They were aliquoted and stored in liquid nitrogen. Before each assay, an aliquot was taken up and washed three times in PBS before being suspended at the desired concentration in assay medium. For 96-well plates the suspension was made to give a final concentration of 5×10EE3 cells/well.
The following chemicals were used in the assay: Pluronic F-68 (10%) (Gibco 2404), ovalbumin (Sigma A5503), DMEM w/o phenol red (Gibco 11880-028), 1 M Hepes (Gibco 15630), Glutamax 100× (Gibco 35050) and steadylite plus (PerkinElmer 6016757).
Assay Medium consisted of DMEM w/o phenol red, 10 mM Hepes, 1× GlutaMAX, 2% Ovalbumin and 0.2% Pluronic F-68.
Cell stocks were thawed in a 37° C. water bath. Cells were washed three times in PBS. The cells were counted and adjusted to 5×10EE3 cells/50 μl (1×10EE5 cells/ml) in Assay Medium. A 50 μl aliquot of cells was transferred to each well in the assay plate.
Stocks of the test compounds and reference compounds were diluted to a concentration of […] in Assay Medium. Compounds were diluted 10-fold to give the following concentrations: 2×10EE-6 M, 2×10EE-7 M, 2×10EE-8 M; 2×10EE-9 M, 2×10EE-10 M, 2×10EE-11 M, 2×10EE-12 M and 2×10EE-13 M. For each compound a blank assay medium control was also included.
A 50 μl aliquot of compound or blank was transferred from the dilution plate to the assay plate. Compounds were tested at the following final concentrations: 1×10EE-6 M, 1×10EE-7 M, 1×10EE-8 M; 1×10EE-9 M, 1×10EE-10 M, 1×10EE-11 M and 1×10EE-12 M and 1×10EE-13 M.
The assay plate was incubated for 3 h in a 5% CO2 incubator at 37° C. The assay plate was removed from the incubator and allowed to stand at room temperature for 15 min. A 100 μl aliquot of steadylite plus reagent was added to each well of the assay plate (reagent is light sensitive). Each assay plate was covered with aluminum foil to protect it from light and shaken for 30 min at room temperature. Each assay plate was read in a Perkin Elmer TopCount NXT instrument.
The data from the TopCount instrument was transferred to GraphPad Prism software. The software performed a non-linear regression (log(agonist) vs response-Variable slope (four parameter)). EC50 values were calculated by the software and reported in pM.

[2] = Thioflavin T (ThT) fibrillation assay for physical stability; assay type: physicochemical; details: 250 μM in 10 mM HEPES buffer, pH 7.5, 37° C., shaking 960 rpm
Summary of the method: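 Fibrillation was followed by ThT (1 μM) fluorescence every 20 min, 444/485 nm, for 250 μM peptide in 10 mM HEPES pH 7.5 shaken at 960 rpm, 37° C. Lag time (t0−2τ) and apparent rate constant (1/τ) come from a sigmoidal fit. Recovery is % of initial concentration remaining soluble after centrifugation and filtration (RP-HPLC).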

human GLP-1 receptor [3] = molecular target: T2, human GLP-1 receptor (Homo sapiens, UniProt P43220); experiment: GLP-1 receptor potency, CRE luciferase reporter gene assay in BHK cells; assay type: cell-based; details: BHK cells expressing human GLP-1 receptor, read-out: EC50 GLP-1R
T2 construct: expressed in transfected cells; host or cells: BHK cells (parent BHKTS13), clone FCW467-12A/KZ10-1, with CRE luciferase
T2 sequence (P43220 24-463): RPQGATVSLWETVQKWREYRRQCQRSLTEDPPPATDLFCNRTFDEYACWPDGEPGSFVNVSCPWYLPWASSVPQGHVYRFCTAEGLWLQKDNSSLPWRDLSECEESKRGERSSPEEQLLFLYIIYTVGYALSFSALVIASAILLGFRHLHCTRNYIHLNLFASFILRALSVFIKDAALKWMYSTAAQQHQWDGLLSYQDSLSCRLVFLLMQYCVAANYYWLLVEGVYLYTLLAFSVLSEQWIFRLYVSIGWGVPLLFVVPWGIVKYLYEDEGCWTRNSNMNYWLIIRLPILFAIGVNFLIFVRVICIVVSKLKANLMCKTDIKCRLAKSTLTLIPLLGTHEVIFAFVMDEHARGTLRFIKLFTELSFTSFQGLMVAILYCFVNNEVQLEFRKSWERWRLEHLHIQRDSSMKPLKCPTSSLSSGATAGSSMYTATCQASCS
Summary of the method: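 Potency as cAMP-driven firefly luciferase signal after 3 h, 37° C exposure to 10-fold dilutions (final 1×10EE-13–1×10EE-6 M). Stable hGLP-1R/CRE-luc BHK clone, 5×10EE3 cells/well, medium containing 2% ovalbumin and 0.2% Pluronic F-68; EC50 (pM) from variable-slope non-linear regression.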

human GLP-1 receptor [4] = molecular target: T2, human GLP-1 receptor; experiment: GLP-1 receptor binding, 125I-GLP-1 displacement SPA on isolated membranes; details: displacement of 125I-GLP-1 from membranes; read-out: IC50 GLP-1R
Summary of the method: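 Test derivatives, serially diluted, competed with 125I-GLP-1(7-36)NH2 for the human GLP-1 receptor on BHK membranes, read by WGA-bead scintillation proximity after 2 h at 30°C, pH 7.4 HEPES/EGTA/MgCl2 buffer. Final serum albumin was either ≤0.001% or 2.0%; IC50 from non-linear fit.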

Structure (SMILES)	Purity loss; 14 days at 37° C. [1] [%]	EC50 (human glucagon receptor) [nM]	THT assay Lag time (Ex. 76) [2] [h]	EC50 (human GLP-1 receptor [3]) [nM]	IC50 (human GLP-1 receptor [4]) [nM]
CC(C)C[C@H](NC(=O)[C@H](CC(C)C)NC(=O)[C@H](Cc1c[nH]c2ccccc12)NC(=O)[C@H](CCC(N)=O)NC(=O)[C@@H](NC(=O)[C@H](Cc1ccccc1)NC(=O)[C@H](CCC(=O)O)NC(=O)[C@H](CCCNC(=N)N)NC(=O)[C@H](C)NC(=O)[C@H](CCCNC(=N)N)NC(=O)[C@H](CCCNC(=N)N)NC(=O)[C@H](CC(C)C)NC(=O)[C@H](CC(=O)O)NC(=O)[C@H](CC(C)C)NC(=O)[C@H](Cc1ccc(O)cc1)NC(=O)[C@H](CCCCN)NC(=O)[C@H](CO)NC(=O)[C@H](CC(C)C)NC(=O)[C@H](CC(=O)O)NC(=O)[C@H](CO)NC(=O)[C@@H](NC(=O)[C@H](Cc1ccccc1)NC(=O)[C@@H](NC(=O)CNC(=O)[C@H](CCC(N)=O)NC(=O)C(C)(C)NC(=O)[C@@H](N)Cc1c[nH]cn1)[C@@H](C)O)[C@@H](C)O)C(C)C)C(=O)N[C@@H](CC(N)=O)C(=O)N[C@@H](CCCCNC(=O)CC[C@H](NC(=O)CC[C@H](NC(=O)COCCOCCNC(=O)CC[C@H](NC(=O)CCCCCCCCCCCCCCCCC(=O)O)C(=O)O)C(=O)O)C(=O)O)C(N)=O [Example 38, N^ε29-[(4S)-4-carboxy-4-[[(4S)-4-carboxy-4-[[2-[2-[2-[[(4S)-4-carboxy-4-(17-carboxyheptadecanoylamino)butanoyl]amino]ethoxy]ethoxy]acetyl]amino]butanoyl]amino]butanoyl]-[Aib2,Leu10,Leu16,Arg20,Glu21,Leu27,Lys29]-Glucagon amide] (H-H[Aib]QGTFTSDLSKYLDLRRAREFVQWLLNK([γGlu-γGlu-AEEA-γGlu-C18 diacid])-NH2; N-terminus assumed)	2	0.024	45		
CC(C)C[C@H](NC(=O)[C@H](CC(=O)O)NC(=O)[C@H](CC(C)C)NC(=O)[C@H](Cc1ccc(O)cc1)NC(=O)[C@H](CCCCN)NC(=O)[C@H](CO)NC(=O)[C@@H](NC(=O)[C@H](CC(=O)O)NC(=O)[C@H](CO)NC(=O)[C@@H](NC(=O)[C@H](Cc1ccccc1)NC(=O)[C@@H](NC(=O)CNC(=O)[C@H](CCC(N)=O)NC(=O)C(C)(C)NC(=O)[C@@H](N)Cc1c[nH]cn1)[C@@H](C)O)[C@@H](C)O)C(C)C)C(=O)N[C@@H](CCCNC(=N)N)C(=O)N[C@@H](CCCNC(=N)N)C(=O)N[C@@H](C)C(=O)N[C@@H](CCC(N)=O)C(=O)N[C@@H](CC(=O)O)C(=O)N[C@@H](Cc1ccccc1)C(=O)N[C@H](C(=O)N[C@@H](CCC(N)=O)C(=O)N[C@@H](Cc1c[nH]c2ccccc12)C(=O)N[C@@H](CC(C)C)C(=O)N[C@@H](CC(C)C)C(=O)N[C@@H](CCCCNC(=O)COCCOCCNC(=O)COCCOCCNC(=O)CC[C@H](NC(=O)CC[C@H](NC(=O)CC[C@H](NC(=O)CCCCCCCCCCCCCCCCC(=O)O)C(=O)O)C(=O)O)C(=O)O)C(=O)N[C@H](C(N)=O)[C@@H](C)O)C(C)C [Example 71, N^ε28-[2-[2-[2-[[2-[2-[2-[[(4S)-4-carboxy-4-[[(4S)-4-carboxy-4-[[(4S)-4-carboxy-4-(17-carboxyheptadecanoylamino)butanoyl]amino]butanoyl]amino]butanoyl]amino]ethoxy]ethoxy]acetyl]amino]ethoxy]ethoxy]acetyl]-[Aib2,Val10,Leu16,Leu27,Lys28]-Glucagon amide] (H-H[Aib]QGTFTSDVSKYLDLRRAQDFVQWLLK([AEEA-AEEA-γGlu-γGlu-γGlu-C18 diacid])T-NH2)		0.017		0.004	0.7
